Like-named read-outs stand apart in the source and are kept apart here.
Columns and labels:
α7-HI = target: T1, α7-HI (Rattus norvegicus, UniProt Q05941); assay: FLIPR Ca2+-sensitive fluorescence assay, α7-HI (agonist activity) in HEK 293 cells; format: cell-based; conditions: Ca2+ flux, HEK-293 cells expressing the channel, read-out: FLIPR α7-HI (EC50)
T1 construct: expressed in transfected cells
Description: I) α7 Nicotinic Acetycholine Receptor Binding. Membranes were prepared for binding using HEK293 cells stably expressing the rat α7 nicotinic acetycholine receptor (rat α7 nAChR). Cells were homogenized at 4° C. in hypotonic lysis buffer consisting of 10 mM Tris (pH 7.4), 5 mM EDTA and protease inhibitors and centrifuged at 32000×g for 20 minutes. The pellet was washed once in membrane wash buffer consisting of 50 mM Tris (pH 7.4), 1 mM EDTA and protease inhibitors and centrifuged at 32000×g for 20 minutes. This pellet was then resuspended in assay buffer consisting 50 mM KH2PO4 (pH 7.4 at 25° C.), 1 mM EDTA, 0.005% Triton-X 100 and 0.1% (v/v) Sigma Protease Inhibitor Cocktail. Aliquots were then frozen in dry ice/ethanol and kept at −80° C. until the day of the assay. II) A Ca^2+-Sensitive, Fluorescence-Based Assay α-7 for Nicotinic Acetylcholine Receptor Channel Function in Mammalian Cells (“FLIPR”). Summary: Lead compounds are evaluated for agonist activity at α-7, α3β4, α4αβ2, and α1β1δ1ε sub-types of nicotinic ACh receptor ion channels expressed in mammalian HEK 293 cells. Agonist potency and efficacy values are determined from kinetic fluorescence Ca^2+ influx measurements made using a 384 well FLIPR (Fluorescence Image Plate Reader). […] In this assay, channel expressing HEK cell lines seeded in 384 well assay plates are loaded with a membrane permeant fluorescent Ca^2+ indicator dye, whose 510 nm green emission signal increases in response to elevation of intracellular Ca^2+ concentration. The basal fluorescence from the cells is monitored in real time, followed by the acute addition of test compounds.
(§1) Materials and Methods: Reagents: The acetomethoxy (AM) ester of the Ca^2+ indicator dye Fluo-4 was obtained from InVitrogen, (Carlsbad, Calif.). Acetylcholine and all buffer constituents were purchased from Sigma Chemical Company, St. Louis, Mo. G418 and Minimal Essential Medium were purchased from InVitrogen Life Technologies, Carlsbad, Calif. Fetal bovine serum was purchased from (InVitrogen, Carlsbad, Calif.).
(§2) Cell Culture: HEK-293 cells were grown in Minimal Essential Medium containing 10% (v/v) fetal bovine serum at 37° C. in a 5% CO2 incubator. HEK-293 cells stably expressing the ion channels were grown in the same medium with the addition of 500 μg/ml G418.
Ca^2+ flux assays of Ca^2+ channels expressed in HEK-293 cells: HEK-293 cells expressing the ion channels of interest were plated in 384 well, black-walled, clear-bottomed, poly-D-lysine coated plates at a density of ˜20,000 cells/well in 20 μl of Minimal Essential Medium containing 10% (v/v) fetal bovine serum and incubated for 2 days at 29° C. in a 5% CO2 incubator. Prior to assay, cells were loaded with the Fluo-4 AM ester. […] Dye loading was allowed to proceed for 90 minutes at room temperature at which time the dye loading solution was removed and replaced with 40 μl/well of Hanks buffer. Cells loaded with dye were loaded onto a FLIPR384 (Molecular Devices, Sunnyvale, Calif.). Fluo-4 dye was excited using the 488 nm line of an argon laser. Emission was filtered using a 540+/−30 nm bandpass filter. For evaluation of the effects of test compounds using the Ca^2+ flux assay, compounds to be tested were provided in assay ready plates. For nicotinic receptor ion channel expressing cells, the assay was initiated by the addition of 20 μl/well of Hanks buffer containing test compounds. For all assays, data were collected at 1 Hz for 10 seconds (baseline), at which time the compound containing stimulus buffers are added, and further measurements collected at 0.33 Hz for 3 min.
Data Analysis: The statistical robustness of the nicotinic receptor Ca^2+ flux assays is determined from blanks and totals wells. […] The raw fluorescence units data files generated on the FLIPR plate reader are automatically exported and processed by in-house data analysis tools.

[1] = target: T2, α-7 nicotinic ACh receptor ion channel (Rattus norvegicus, UniProt Q05941); assay: FLIPR Ca2+-sensitive fluorescence assay of α7 nicotinic acetylcholine receptor channel function (agonist activity) in HEK 293 cells; format: cell-based; conditions: Ca2+ flux, HEK-293 cells expressing the channel
T2 construct: expressed in transfected cells
T2 sequence (Q05941 23-502): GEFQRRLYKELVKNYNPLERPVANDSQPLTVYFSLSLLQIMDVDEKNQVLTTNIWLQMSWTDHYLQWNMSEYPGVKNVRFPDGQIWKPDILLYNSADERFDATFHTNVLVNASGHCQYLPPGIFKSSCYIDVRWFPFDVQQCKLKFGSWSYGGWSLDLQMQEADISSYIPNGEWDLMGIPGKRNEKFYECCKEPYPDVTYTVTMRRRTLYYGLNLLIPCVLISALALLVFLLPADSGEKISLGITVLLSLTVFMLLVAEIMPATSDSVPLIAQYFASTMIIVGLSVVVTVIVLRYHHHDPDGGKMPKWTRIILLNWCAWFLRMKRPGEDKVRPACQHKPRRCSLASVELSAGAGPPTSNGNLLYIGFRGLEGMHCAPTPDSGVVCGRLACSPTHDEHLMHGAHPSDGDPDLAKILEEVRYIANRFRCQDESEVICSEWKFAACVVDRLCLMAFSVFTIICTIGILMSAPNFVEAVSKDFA
Description: I) α7 Nicotinic Acetycholine Receptor Binding. Membranes were prepared for binding using HEK293 cells stably expressing the rat α7 nicotinic acetycholine receptor (rat α7 nAChR). Cells were homogenized at 4° C. in hypotonic lysis buffer consisting of 10 mM Tris (pH 7.4), 5 mM EDTA and protease inhibitors and centrifuged at 32000×g for 20 minutes. The pellet was washed once in membrane wash buffer consisting of 50 mM Tris (pH 7.4), 1 mM EDTA and protease inhibitors and centrifuged at 32000×g for 20 minutes. This pellet was then resuspended in assay buffer consisting 50 mM KH2PO4 (pH 7.4 at 25° C.), 1 mM EDTA, 0.005% Triton-X 100 and 0.1% (v/v) Sigma Protease Inhibitor Cocktail. Aliquots were then frozen in dry ice/ethanol and kept at −80° C. until the day of the assay. II) A Ca^2+-Sensitive, Fluorescence-Based Assay α-7 for Nicotinic Acetylcholine Receptor Channel Function in Mammalian Cells (“FLIPR”). Summary: Lead compounds are evaluated for agonist activity at α-7, α3β4, α4αβ2, and α1β1δ1ε sub-types of nicotinic ACh receptor ion channels expressed in mammalian HEK 293 cells. Agonist potency and efficacy values are determined from kinetic fluorescence Ca^2+ influx measurements made using a 384 well FLIPR (Fluorescence Image Plate Reader). The utility of fluorescent indicators for measuring changes in intracellular divalent cation concentrations, particularly Ca^2+, for drug discovery endeavors is well documented (Rudiger, R., et al., Nature Reviews, 2003, 4:579-586; Gonzalez J. E., et al., Receptors and Channels, 2002, 8:283-295). In this assay, channel expressing HEK cell lines seeded in 384 well assay plates are loaded with a membrane permeant fluorescent Ca^2+ indicator dye, whose 510 nm green emission signal increases in response to elevation of intracellular Ca^2+ concentration. The basal fluorescence from the cells is monitored in real time, followed by the acute addition of test compounds. If the compound is an agonist at any of the non-selective cation channels, the latter open and allow the movement of extracellular Ca^2+ ions into the cell cytoplasm, where they bind to the Ca^2+ indicator dye, and produce an increase in fluorescence output signal, which is detected by a cooled CCD imaging camera.
as §1, §2
Ca^2+ flux assays of Ca^2+ channels expressed in HEK-293 cells: HEK-293 cells expressing the ion channels of interest were plated in 384 well, black-walled, clear-bottomed, poly-D-lysine coated plates at a density of ˜20,000 cells/well in 20 μl of Minimal Essential Medium containing 10% (v/v) fetal bovine serum and incubated for 2 days at 29° C. in a 5% CO2 incubator. Prior to assay, cells were loaded with the Fluo-4 AM ester. Cell loading was accomplished by removing the culture medium and replacing it with 30 μl/well of the AM ester of the dye (5 μM) mixed with Hanks Balanced Salt Solution (#14175-095) containing 20 mM HEPES, 2.5 mM probenecid, 0.5 mM CaCl2, 1 mM MgCl2 and 10 μM atropine. Dye loading was allowed to proceed for 90 minutes at room temperature at which time the dye loading solution was removed and replaced with 40 μl/well of Hanks buffer. Cells loaded with dye were loaded onto a FLIPR384 (Molecular Devices, Sunnyvale, Calif.). Fluo-4 dye was excited using the 488 nm line of an argon laser. Emission was filtered using a 540+/−30 nm bandpass filter. […]

T1 sequence (Q05941 23-502): as above

Compound	EC50 (α7-HI; Table 4) [nM]	other results
COc1cccc2[nH]nc(C(=O)N3C4CC5CN(CCC53)C4)c12 (stereo not drawn) [Example 48, ((2S*,3aR*,5R*,7aS*)-(4-methoxy-1H-indazol-3-yl)(hexahydro-2,5-methanopyrrolo[3,2-c]pyridin-1(6H)-yl)methanone]	7400	
O=C(c1n[nH]c2ccccc12)N1C2CC3C1CCCN3C2 (stereo not shown) [Example 50, (1H-indazol-3-yl)(octahydro-2,8-epiminoindolizin-9-yl)methanone]		EC50 (α7-HI; Table 5): 360 nM
O=C(c1n[nH]c2ccc(Br)cc12)N1C2CC3CN(CCC31)C2 (stereo not drawn) [Example 44, ((2S*,3aR*,5R*,7aS*)-(5-bromo-1H-indazol-3-yl)(hexahydro-2,5-methanopyrrolo[3,2-c]pyridin-1(6H)-yl)methanone]	> 100000	
COc1ccc2[nH]nc(C(=O)N3C4CC5CN(CCC53)C4)c2c1 (stereo not drawn) [Example 41, ((2S*,3aR*,5R*,7aS*)-(5-methoxy-1H-indazol-3-yl)(hexahydro-2,5-methanopyrrolo[3,2-c]pyridin-1(6H)-yl)methanone]	> 100000	
O=C(c1n[nH]c2cc(F)ccc12)N1C2CC3CN(CCC31)C2 (stereo not drawn) [Example 42, ((2S*,3aR*,5R*,7aS*)-(6-fluoro-1H-indazol-3-yl)(hexahydro-2,5-methanopyrrolo[3,2-c]pyridin-1(6H)-yl)methanone]	54	
O=C(c1n[nH]c2c(Cl)cccc12)N1C2CC3CN(CCC31)C2 (stereo not drawn) [Example 45, ((2S*,3aR*,5R*,7aS*)-(7-chloro-1H-indazol-3-yl)(hexahydro-2,5-methanopyrrolo[3,2-c]pyridin-1(6H)-yl)methanone]	> 100000	
O=C(c1n[nH]c2cc(Cl)ccc12)N1C2CC3CN(CCC31)C2 (stereo not drawn) [Example 46, ((2S*,3aR*,5R*,7aS*)-(6-chloro-1H-indazol-3-yl)(hexahydro-2,5-methanopyrrolo[3,2-c]pyridin-1(6H)-yl)methanone]	10	
O=C(c1cc2cccc(Cl)c2s1)N1C2CC3C1CCCN3C2 (stereo not shown) [Example 51, (7-chlorobenzo[b]thiophen-2-yl)(octahydro-2,8-epiminoindolizin-9-yl)methanone]		EC50 (α7-HI; Table 5): > 100000 nM
O=C(c1noc2ccccc12)N1C2CC3CN(CCC31)C2 (stereo not drawn) [Example 47, ((2S*,3aR*,5R*,7aS*)-benzo[d]isoxazol-3-yl(hexahydro-2,5-methanopyrrolo[3,2-c]pyridin-1(6H)-yl)methanone]	1300	
O=C(c1n[nH]c2ccccc12)N1C2CC3CN(CCC31)C2 (stereo not drawn) [Example 34, ((2S*,3aR*,5R*,7aS*)-hexahydro-2,5-methanopyrrolo[3,2-c]pyridin-1(6H)-yl)(1H-indazol-3-yl)methanone]	29	
O=C(c1cc(-c2ccccc2)n[nH]1)N1C2CC3CN(CCC31)C2 (stereo not drawn) [Example 38, ((2S*,3aR*,5R*,7aS*)-(hexahydro-2,5-methanopyrrolo[3,2-c]pyridin-1(6H)-yl)(3-phenyl-1H-pyrazol-5-yl)methanone]	> 100000	
COc1ccc2c(C(=O)N3C4CC5CN(CCC53)C4)n[nH]c2c1 (stereo not drawn) [Example 43, ((2S*,3aR*,5R*,7aS*)-(6-methoxy-1H-indazol-3-yl)(hexahydro-2,5-methanopyrrolo[3,2-c]pyridin-1(6H)-yl)methanone]	23	
O=C(c1n[nH]c2ccccc12)N1[C@H]2C[C@@H]3CC[N@](C2)C[C@@H]31 [Example 18, ((2S,3aS,6R,7aR)-hexahydro-2,6-methanopyrrolo[2,3-c]pyridin-1(2H)-yl)(1H-indazol-3-yl)methanone]		EC50 ([1]; Table 2): 55 nM
O=C(c1cc2cccc(Cl)c2s1)N1C2CC3CCN(C2)CC31 (stereo not shown) [Example 4, (7-chlorobenzo[b]thiophen-2-yl)(hexahydro-2,6-methanopyrrolo[2,3-c]pyridin-1(2H)-yl)methanone]		EC50 ([1]; Table 1): > 100000 nM
O=C(c1cc2c(Cl)cccc2s1)N1C2CC3CCN(C2)CC31 (stereo not shown) [Example 12, (4-chlorobenzo[b]thiophen-2-yl)(hexahydro-2,6-methanopyrrolo[2,3-c]pyridin-1(2H)-yl)methanone]		EC50 ([1]; Table 1): > 100000 nM
O=C(c1ccc(Cl)cc1)N1C2CC3CCN(C2)CC31 (stereo not shown) [Example 13, (4-chlorophenyl)(hexahydro-2,6-methanopyrrolo[2,3-c]pyridin-1(2H)-yl)methanone]		EC50 ([1]; Table 1): > 100000 nM
O=C(c1nccc2ccccc12)N1[C@@H]2C[C@H]3CC[N@@](C2)C[C@H]31 [Example 25, ((2R,3aR,6S,7aS)-hexahydro-2,6-methanopyrrolo[2,3-c]pyridin-1(2H)-yl)(isoquinolin-1-yl)methanone]		EC50 ([1]; Table 3): 45000 nM
Cn1cc(C(=O)N2C3CC4CCN(C3)CC42)c2ccccc21 (stereo not shown) [Example 14, (Hexahydro-2,6-methanopyrrolo[2,3-c]pyridin-1(2H)-yl)(1-methyl-1H-indol-3-yl)methanone]		EC50 ([1]; Table 1): > 100000 nM
COc1ccc2c(C(=O)N3C4CC5CCN(C4)CC53)n[nH]c2c1 (stereo not shown) [Example 9, (6-methoxy-1H-indazol-3-yl)(hexahydro-2,6-methanopyrrolo[2,3-c]pyridin-1(2H)-yl)methanone]		EC50 ([1]; Table 1): 260 nM
